Measured values taken from patent US20080319083A1, “MEDICINE FOR TRANSNASAL ADMINISTRATION” (priority 2006, published 2008).
Structures can show the parent of a compound that is named as a salt. Where two headings read alike, the source gives them in different places.

What was measured:
in vivo = experiment: in vivo; design: species or system Wistar male rats; conditions: male, Wistar, rat, iv, 20 mg/kg
Protocol: Each rat was fixed in a face-up position on a fixed base, and the left and right jugular veins were exposed to collect blood. The rats underwent an operation of the airway and esophagus to adjust the physiological conditions to the same conditions as those of the intranasal administration test, and the above-prepared isotonic sodium chloride solution containing milnacipran hydrochloride (dosage 20 mg/kg, concentration 20 mg/mL) was administered from the right jugular vein, followed by collection of blood using an injection syringe previously treated with heparin with time in an amount of 200 μL per injection. […] The obtained data was analyzed based on the moment analysis to calculate the area under the plasma concentration-time curve (AUC), mean residence time (MRT), and mean absorption time (MAT). The cumulative absorption profile of milnacipran hydrochloride was calculated by the deconvolution method based on kinetic parameters determined from the intravenous administration test for an input function and based on plasma levels after intraduodenal or intranasal administration for an output function.

[1] = In vivo intraduodenal administration test of milnacipran hydrochloride (Test Example 3); design: species or system Wistar male rats; conditions: rat
Protocol: Each rat was fixed in a face-up position on a fixed base, and the left and right jugular veins were exposed to collect blood. The abdominal cavity was incised to take the duodenum out, and the downstream portion of the duodenum was ligated, followed by direct administration of the above-prepared isotonic sodium chloride solution containing milnacipran hydrochloride (dosage 20 mg/kg, concentration 20 mg/mL) to the duodenum from the upstream portion. The time of duodenum administration was defined as 0 minutes, and blood samples were collected using an injection syringe previously treated with heparin with time in an amount of 200 μL per injection. […] The obtained data was analyzed based on the moment analysis to calculate the area under the plasma concentration-time curve (AUC), mean residence time (MRT), and mean absorption time (MAT). The cumulative absorption profile of milnacipran hydrochloride was calculated by the deconvolution method based on kinetic parameters determined from the intravenous administration test for an input function and based on plasma levels after intraduodenal or intranasal administration for an output function.

[2] = In vivo intranasal administration test of milnacipran hydrochloride (Test Example 3); design: species or system Wistar male rats; conditions: i.n. 20 mg/kg
Protocol: Each rat was fixed in a face-up position on a fixed base, and the left and right jugular veins were exposed to collect blood. […] The time of intranasal administration was defined as 0 minutes, and blood samples were collected using an injection syringe previously treated with heparin with time in an amount of 200 μL per injection.
The obtained data was analyzed based on the moment analysis to calculate the area under the plasma concentration-time curve (AUC), mean residence time (MRT), and mean absorption time (MAT). The cumulative absorption profile of milnacipran hydrochloride was calculated by the deconvolution method based on kinetic parameters determined from the intravenous administration test for an input function and based on plasma levels after intraduodenal or intranasal administration for an output function.

[3] = In vivo intravenous administration test of milnacipran hydrochloride (Test Example 2); design: species or system Wistar male rats
Excerpt: Each rat was fixed in a face-up position on a fixed base and underwent an operation of the airway and esophagus, to thereby expose the left and right jugular veins. […]

[4] = Transnasal administration experiment in closed system, plasma pharmacokinetics (Test Example 1)
Protocol: To 100 μL of plasma was added 300 μL of NH4Cl (pH 9), and the mixture was stirred for 30 seconds. Then, 500 μL of chloroform/2-isopropanol/n-heptane (60/14/26) was added, and the mixture was shaken for 2 minutes and centrifuged (4° C., 15,000 rpm, 5 min).
The chloroform layer (lower layer) obtained by centrifugation was transferred to another microtube, and the solvent was removed with flowing nitrogen. All the solvents were removed, and the extract was dissolved in 100 μL of a buffer used as a mobile phase for HPLC. Then, the solution was dispensed into a glass tube and injected to HPLC in an amount of 30 μL to measure the concentration of milnacipran hydrochloride.
The intravenous maximum plasma concentration (Cmax), maximum plasma concentration time (Tmax), area under the plasma concentration-time curve (AUC) and absorption ratio (F) were calculated. The area under the plasma concentration-time curve (AUC) was calculated from the trapezoid formula AUC represents an integrated value of the concentrations of plasma milnacipran absorbed and transferred to blood.
The obtained data was analyzed based on the nonlinear least-squares method program (algorithm: Damping Gauss-Newton method). AUC, MRT, MAT were derived from moment analysis. Meanwhile, the relative rate of the retention in the nasal cavity was evaluated by Formula (1) below.
A solution of urethane in isotonic sodium chloride solution (dosage 1.0 g/kg, 25 w/v %) was administered intraperitoneally to Wistar male rats, and the rats were anaesthetized: Each rat was fixed on a fixed base in a face-up position, and then the airway and esophagus surgeries was performed on the rat in according to the method of Hirai et. al (J. Pharm. Sci. 69:1411-1413 (1980)) to thereby expose the left and right jugular veins. The solution of milnacipran hydrochloride in isotonic sodium chloride solution was administered to the left the nasal cavity using a microsyringe, the top of which was attached to a silicone tube (dosage 20 mg/kg, concentration 100 mg/mL). Blood was corrected over time from the right jugular using a syringe previously treated with heparin. The blood samples were collected in an amount of 0.2 mL per injection, just 0 minute before transnasal administration, and 5, 10, 20, 30, 60, 90, 120, 180, 240, 300 and 360 minutes after the transnasal administration respectively. The collected blood samples were immediately centrifuged at 4° C. and 15,000 rpm (17,860 g) for 5 minutes, to thereby yield plasma samples (0.1 mL).

[5] = Transnasal administration experiment in opened system, plasma pharmacokinetics (Test Example 1); format: in vivo, Wistar male rats
Excerpt: AUC, MRT, MAT were derived from moment analysis. […] Each rat was fixed in a face-up position on a fixed base, and the right jugular vein was exposed to insert a catheter. After the nib of the catheter was indwelled in the atrium dextrum, the opened regions of the right jugular vein was sutured together using the medical suture thread with an attached needle (17 mm, angle ½ black nylon 5-0, Matsuda Sutures). After the sufficient recovery period, each rat was used for experiments. To the rats with the jugular vein catheterization, prepared by the above-described “1. […] Blood was collected via catheter over time using an injection syringe previously treated with heparin. […] After recovering from diethylether anesthesia, the rats was placed in gauges.

[6] = In vivo intranasal administration test of milnacipran hydrochloride (Test Example 2); design: species or system Wistar male rats
Protocol: Each rat was fixed in a face-up position on a fixed base and underwent an operation of the airway and esophagus to adjust the physiological conditions to the same conditions as those of the intravenous administration test, to thereby expose the left and right jugular veins. […] An injection syringe previously treated with heparin was used to collect blood from the right jugular vein over time.
The cumulative absorption profile of milnacipran hydrochloride was determined by the deconvolution method using kinetic parameters determined from the intravenous administration test as an input function and plasma levels after transnasal administration as an output function.

[7] = Evaluation of transfer of milnacipran hydrochloride to central nerve system, CSF concentration (Test Example 4); design: species or system Wistar male rats; conditions: in vivo
Protocol: As an indicator of transfer to the central nerve system, the concentration of a drug in a cerebrospinal fluid (CSF) was measured. The same operations and administrations as Test Example 3 (in vivo mucosal absorption experiment) were performed (n=3) for intravenous administration, intraduodenal administration, and intranasal administration. Then, blood was collected with time from the jugular vein, and after a given length of time, CSF was collected. An injection needle previously cut was adhered to a silicon tube to prepare an instrument, the other end of which was connected to a syringe, and after a given length of time following drug administration, a puncture was made ventrally from the top of the back of the head of a rat to a depth of 5 to 6 mm with the top of the injection needle. Then, the syringe was drawn to collect CSF in an amount of about 200 μL in the silicon tube.
The obtained data was analyzed based on the moment analysis to calculate the area under the cerebrospinal fluid concentration-time curve (AUCCSF). The AUCCSF represents an integrated value of concentrations of milnacipran in CFS, absorbed and transferred to the brain. Transfer of a drug from the general circulation to CSF is controlled by permeation through a blood-brain barrier and is greatly affected by the concentration of the drug in blood. Therefore, in order to consider the effect of permeation through a blood-brain barrier, brain transfer was evaluated by comparing ratios of the concentrations in CSF to the protein unbound drug concentration in plasma at the time of collection of CSF. Meanwhile, the brain transfer ratio (Kpu) was calculated from an area under the CSF concentration-time curve, an area under the plasma concentration-time curve, and a plasma protein unbinding ratio (following Formula 3). A significant test was performed based on the Tukey-Kramer multiple comparison. Note that AUCplasma represents an integrated value of the plasma concentrations of milnacipran absorbed and transferred to blood.

[8] = male, Wistar, in vivo, 20 mg/kg
[9] = male, Wistar, in vivo, inhaled or intranasal, rat plasma
[10] = male, Wistar, rat, in vivo, iv, 20 mg/kg
[11] = male, Wistar, rat, in vivo, inhaled or intranasal, 20 mg/kg
[12] = male, Wistar, in vivo, inhaled or intranasal, rat plasma, transnasal 20 mg/kg, opened system
[13] = male, Wistar, rat, iv, 20 mg/kg

Molecule CCN(CC)C(=O)C1(c2ccccc2)CC1CN (racemic) [milnacipran hydrochloride, cis-(±)-2-(aminomethyl)-N,N-diethyl-1-phenyl-cyclopropanecarboxyamide] has an AUC(0-inf) (in vivo) of 9890 ng·h/mL, an MRT inf (in vivo) of 1.34 h and an AUC(0-inf) [1, 8] of 7000 ng·h/mL. The Cmax [1, 8] was 3070 ng/mL, the MRT inf [1, 8] was 1.89 h and the Tmax [1, 8] was 1 h. For the same molecule, the “F∞” value ([1]; i.d. 20 mg/kg) was 70.8%, the AUC(0-inf) [2, 9] was 8400 ng·h/mL and the Cmax [2, 9] was 5120 ng/mL. For the same molecule, the MRT inf [2, 9] was 1.62 h, the Tmax [2, 9] was 0.333 h and the “F∞” value ([2]; rat) was 84.9%. The AUC(0-inf) [3, 10] was 9680 ng·h/mL, the AUC(0-t) [3, 10] was 9430 ng·h/mL and the Vd [3, 10] was 0.123 L. For the same molecule, the clearance [3, 10] was 2.69 mL/min, the B ([3]; rat plasma, i.v. 20 mg/kg) was 5580.51 ng/mL and the t1/2α ([3]; rat plasma, i.v. 20 mg/kg) was 6.221 min. The t1/2β ([3]; rat plasma, i.v. 20 mg/kg) was 1.0709 h, the α ([3]; rat plasma, i.v. 20 mg/kg) was 0.1114 min⁻¹ and the β ([3]; rat plasma, i.v. 20 mg/kg) was 0.01079 min⁻¹. It also gave an A ([3]; rat plasma, i.v. 20 mg/kg, two-compartment parameter) of 7085.09 ng/mL, a V1 ([3]; rat, i.v. 20 mg/kg) of 67.74 mL and a V2 ([3]; rat, i.v. 20 mg/kg) of 55.64 mL. The k10 ([3]; rat, i.v. 20 mg/kg) was 0.0218 min⁻¹, the k12 ([3]; rat, i.v. 20 mg/kg) was 0.0453 min⁻¹ and the k21 ([3]; rat, i.v. 20 mg/kg) was 0.0551 min⁻¹. It also gave an AUC(0-inf) [4, 11] of 8400 ng·h/mL, a Cmax [4, 11] of 5120 ng/mL and a Tmax [4, 11] of 0.333 h. For the same molecule, the MRT inf ([4]; male, Wistar, rat, in vivo, inhaled or intranasal, 20 mg/kg, MRT∞, rat plasma, transnasal 20 mg/kg, closed system) was 1.88 h, the “MRT∞” value ([4]; rat plasma, transnasal 20 mg/kg, closed system, listed as Control) was 1.62 h and the “F∞” value ([4]; rat, transnasal 20 mg/kg, closed system, vs i.v. 20 mg/kg) was 84.9%. For the same molecule, the AUC(0-inf) [5, 12] was 6120 ng·h/mL, the Cmax [5, 12] was 3040 ng/mL and the MRT inf [5, 12] was 1.77 h. For the same molecule, the Tmax [5, 12] was 0.333 h, the “Fo/Fc (relative rate of the retention in the nasal cavity)” value ([5]; male, Wistar, rat, in vivo) was 72.8% and the “F∞” value ([5]; rat, transnasal 20 mg/kg, opened system) was 61.9%. It also gave an AUC(0-inf) ([6]; male, Wistar, in vivo, inhaled or intranasal, rat plasma, i.n. 10 mg/kg) of 4770 ng·h/mL, an AUC(0-t) ([6]; male, Wistar, in vivo, inhaled or intranasal, rat plasma, i.n. 10 mg/kg, 0 to 7 hours, read-out: AUC0-7 (converted)) of 4380 ng·h/mL and a Tmax ([6]; male, Wistar, in vivo, rat plasma, i.n. 10 mg/kg) of 0.333 h. For the same molecule, the Cmax ([6]; male, Wistar, in vivo, rat plasma, i.n. 10 mg/kg, 50 mg/mL (Example 5)) was 5270 ng/mL, the F0-7 ([6]; rat, i.n. 10 mg/kg vs i.v. 20 mg/kg, 0 to 7 hours) was 90.41% and the Cmax ([7]; male, Wistar, inhaled or intranasal, rat CSF, i.n. 20 mg/kg, read-out: Cmax (maximum CSF concentration)) was 4020 ng/mL. It also gave a Tmax ([7]; male, Wistar, inhaled or intranasal, rat CSF, i.n. 20 mg/kg, read-out: Tmax (time-to-maximum CSF concentration) (converted)) of 0.333 h, an AUC ([7]; male, Wistar, inhaled or intranasal, rat plasma, i.n. 20 mg/kg, read-out: AUCPlasma (converted)) of 8400 ng·h/mL and an AUC ([7]; male, Wistar, rat, 20 mg/kg) of 7000 ng·h/mL. For the same molecule, the Cmax ([7]; male, Wistar, rat, 20 mg/kg) was 1010 ng/mL, the Tmax ([7]; male, Wistar, rat, 20 mg/kg) was 1 h and the “ratio of plasma concentration and CSF concentration” value ([7]; male, Wistar, rat, 20 mg/kg) was “significantly increased up to 30 minutes after administration”. It also gave an AUC [7, 13] of 9890 ng·h/mL, an AUCCSF [7, 13] of 13727.9 ng·min/mL and a Cmax [7, 13] of 2220 ng/mL. The Tmax [7, 13] was 0.167 h, the Kp ([7]; male, Wistar, rat, iv, 20 mg/kg, Kpu (brain transfer ratio)) was 0.028 and the “CSF Cmax in intranasal administration relative to intraduodenal administration” value ([7]; rat, 20 mg/kg) was “four times larger than that in intraduodenal administration”. For the same molecule, the “CSF Cmax in intranasal administration relative to intravenous administration” value ([7]; rat, 20 mg/kg) was “twice larger than that in intravenous administration” and the “ratio of plasma concentration and CSF concentration” value ([7]; rat, 20 mg/kg) was “almost constant”.
